As usually defined, the melting point is the temperature of the solid-liquid transition.

The results in this text go back to patent US6436952B1, “Benzonaphthyridine-N-oxides comprising a PDE3 and PDE4 inhibiting activity” (BYK Gulden Lomberg Chemische Fabrik GmbH, priority 1998, dated 2002).

One series addresses T1, PDE3 (cGMP-inhibited) (Homo sapiens, UniProt Q14432).
T1 construct: were investigated in homogenates of human blood platelets; from tissue; host or cells: homogenate of human blood platelets
Description: Inhibition of PDE isoenzymes: PDE3 in homogenates of human blood platelets. It is filed as biochemical. The settings on record: cAMP as substrate, read-out: PDE3 [-log IC50, mol/l] (converted). The protocol:
(§1) The PDE activity was determined according to Thompson et al. (1) with some modifications (2). The test samples contained 40 mM tris HCl (pH 7.4), 5 mM MgCl2, 0.5 μM cAMP or cGMP, [^3H]cAMP or [^3H]cGMP (about 50 000 cpm/sample), the PDE isoenzyme-specific additions described in greater detail below, the indicated concentrations of inhibitor and an aliquot of the enzyme solution in a total sample volume of 200 μl. […] After preincubation at 37° C. for 5 minutes, the reaction was started by addition of the substrate (cAMP or cGMP). The samples were incubated at 37° C. for a further 15 min. The reaction was terminated by addition of 50 μl of 0.2N HCl. After cooling on ice for 10 minutes and addition of 25 μg of 5′-nucleotidase (snake venom from Crotalus atrox), the mixture was again incubated at 37° C. for 10 min and the samples were then applied to QAE Sephadex A-25 columns. The columns were eluted with 2 ml of 30 mM ammonium formate (pH 6.0). The radioactivity of the eluate was measured and corrected by the corresponding blank values. The proportion of hydrolyzed nucleotide in no case exceeded 20% of the original substrate concentration. […]
(§2) The lC50 values were determined from the concentration-inhibition curves by nonlinear regression using the GraphPad InPlot™ program (GraphPad Software Inc., Philadelphia, USA).

The target of another series is PDE4 (cAMP-specific). Description: Inhibition of PDE isoenzymes: PDE4 in cytosol of human polymorphonuclear leukocytes. The series is classed as biochemical. Conditions: cytosol of human PMNL, cAMP as substrate, motapizone (1 μM) present. The protocol: as §1, §2

T1 sequence (Q14432 whole entry): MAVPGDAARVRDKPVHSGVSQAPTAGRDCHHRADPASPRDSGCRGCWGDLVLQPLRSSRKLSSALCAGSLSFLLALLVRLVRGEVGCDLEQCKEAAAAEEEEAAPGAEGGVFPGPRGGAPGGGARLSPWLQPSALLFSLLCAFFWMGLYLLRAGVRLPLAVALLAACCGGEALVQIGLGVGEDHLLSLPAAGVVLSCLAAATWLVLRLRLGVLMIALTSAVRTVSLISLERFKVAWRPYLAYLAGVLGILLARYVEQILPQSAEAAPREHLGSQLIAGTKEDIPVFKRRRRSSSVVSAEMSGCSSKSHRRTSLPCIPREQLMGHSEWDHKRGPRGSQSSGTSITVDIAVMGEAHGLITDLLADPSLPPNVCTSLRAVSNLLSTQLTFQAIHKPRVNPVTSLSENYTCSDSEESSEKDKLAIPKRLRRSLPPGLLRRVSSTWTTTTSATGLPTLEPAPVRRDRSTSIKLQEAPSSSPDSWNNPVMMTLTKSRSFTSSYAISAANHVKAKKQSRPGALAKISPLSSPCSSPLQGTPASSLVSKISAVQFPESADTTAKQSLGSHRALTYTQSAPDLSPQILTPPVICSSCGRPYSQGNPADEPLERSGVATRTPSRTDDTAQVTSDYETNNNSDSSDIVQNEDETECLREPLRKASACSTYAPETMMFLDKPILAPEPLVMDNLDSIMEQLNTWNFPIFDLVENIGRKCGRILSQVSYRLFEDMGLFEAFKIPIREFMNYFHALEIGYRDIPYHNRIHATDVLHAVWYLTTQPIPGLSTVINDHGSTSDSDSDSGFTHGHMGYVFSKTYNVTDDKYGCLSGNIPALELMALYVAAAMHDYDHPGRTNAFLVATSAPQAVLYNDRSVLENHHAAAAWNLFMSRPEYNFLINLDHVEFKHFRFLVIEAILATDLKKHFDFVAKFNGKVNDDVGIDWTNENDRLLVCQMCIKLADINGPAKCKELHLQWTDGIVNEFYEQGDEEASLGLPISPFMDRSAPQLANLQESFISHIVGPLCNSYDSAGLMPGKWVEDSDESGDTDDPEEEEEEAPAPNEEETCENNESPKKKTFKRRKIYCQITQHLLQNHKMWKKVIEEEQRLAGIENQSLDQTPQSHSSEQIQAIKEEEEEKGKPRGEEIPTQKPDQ

For `CCOc1cc2c(cc1OC)C(c1ccc(-c3nnn(CC)n3)cc1)=NC1CC[N+](C)([O-])CC21` (stereo not drawn) [Compound 1, cis-9-Ethoxy-8-methoxy-2-methyl-6-[4-(2H-2-ethyltetrazol-5-yl)phenyl]-1,2,3,4,4a,10b-hexahydrobenzo[c][1,6]naohthyridine N-2-Oxide], the melting point lay in the range of 168 to 170 °C. For the same compound, the IC50 at PDE3 (cGMP-inhibited) was 776 nM. The “PDE4 [-log IC50, mol/l]” value on PDE4 (cAMP-specific) was 7.53 -log IC50, mol/l.
